# Reference: patent US20190070139A1, “AGENT FOR IMPROVING PHYSICAL FITNESS” (AJINOMOTO CO., INC, priority 2016, published 2019)
# Experiments:
# [1] = test system: glycogen in gastrocnemius muscle; assay: Amount of glycogen in gastrocnemius muscle; type: in vivo, mouse; details: Experimental Example 1; next day after 3-day continuous exercise; Ex+Cyt (2 wt % cystine diet) vs Ex
# Protocol: 6-Week-old male CD2F1 mice (CHARLES RIVER LABORATORIES JAPAN, INC.) were divided into 3 groups of a group with ingestion of a normal diet (AIN-93G composition) and without exercise (non-exercise group), a group with ingestion of a normal diet and with exercise (exercise group), and a group with ingestion of a diet containing 2 wt % cystine (free form), which was prepared by replacing casein in the normal diet with cystine, and with exercise (exercise+2% cystine group). Each group ingested a test diet (normal diet or normal diet containing 2 wt % cystine) for 8 days. Thereafter, the exercise group and the exercise+2% cystine group were made to run on a treadmill until exhaustion for 3 consecutive days, and the running time until then was measured (FIG. 1). The non-exercise group was fasted and deprived of water during running of the other two groups. On the next day after completion of the 3-day running, the muscle of the mice in each group was collected, and the amount of glycogen in the muscle was measured. The amount of glycogen in muscle was measured as follows. […] Glucose in this solution was detected and quantified using “glucose CII-Test Wako” (manufactured by Wako Pure Chemical Industries, Ltd.). […] The groups with exercise were forced to run in a treadmill until exhaustion for 2 consecutive days and the running time then was measured. […]
# male CD2F1 mice = assay: Treadmill running until exhaustion (endurance capacity); type: in vivo, mouse
# Protocol: 6-Week-old male CD2F1 mice (CHARLES RIVER LABORATORIES JAPAN, INC.) were divided into 3 groups of a group with ingestion of a normal diet (AIN-93G composition) and without exercise (non-exercise group), a group with ingestion of a normal diet and with exercise (exercise group), and a group with ingestion of a diet containing 2 wt % cystine (free form), which was prepared by replacing casein in the normal diet with cystine, and with exercise (exercise+2% cystine group). Each group ingested a test diet (normal diet or normal diet containing 2 wt % cystine) for 8 days. Thereafter, the exercise group and the exercise+2% cystine group were made to run on a treadmill until exhaustion for 3 consecutive days, and the running time until then was measured (FIG. 1). […] On the next day after completion of the 3-day running, the muscle of the mice in each group was collected, and the amount of glycogen in the muscle was measured. […] Thereafter, the mice were forced to run until exhaustion under the exercise conditions similar to those in Experimental Example 1, and the running time then was measured. […] The next day, the mice were made to run until exhaustion under the exercise conditions similar to those in Experimental Example 1, and the running time then was measured. The amount of increase in the running time was calculated as an endurance-improving effect. […]
compound,measurement,setting,value
"NC(CSSCC(N)C(=O)O)C(=O)O (stereo not drawn) [cystine, 3,3′-dithiobis(2-aminopropanoic acid)]",amount of glycogen in gastrocnemius muscle,[1],further significantly (P<0.05) increased
same,amount of increase in the running time by exercise,"male CD2F1 mice; Experimental Example 1, diet containing 2 wt % cystine for 8 days, then running until exhaustion for 3 consecutive days, Ex+Cyt vs Ex (normal diet)",significantly (P<0.05 or P<0.01) higher
same,amount of increase in the running time,"male CD2F1 mice; Experimental Example 2, 2 wt % cystine diet given for one day after exercise on day 1, day 2 minus day 1, Ex+Cyt vs Ex",tended to be higher
